The target in the test is T1, HIV-1 protease (Human immunodeficiency virus type 1 group M subtype B, UniProt P04585).
T1 construct: Purified HIV-1 protease was obtained as described above; made in house; host or cells: E. coli K12 L507/pHP10D (NRRL B-18560)
The test can be described thus: biochemical. It counts as biochemical. Particulars: for IC50: read-out: Fluorescence Assay IC50 (converted).

The source of these data is patent publication US5554653A, “Inhibitors of HIV protease useful for the treatment of AIDS” (Eli Lilly and Company, priority 1992, dated 1996).

As usually defined, the IC50 is the concentration needed to halve the response being measured.

The structures appear in SMILES notation.

On to `CC(C)(C)NC(=O)c1ccccc1C[C@@H](O)[C@H](Cc1ccccc1)NC(=O)[C@@H](CSCc1ccccc1)NS(C)(=O)=O` [Example 19C, [2R-(2R*,3S*,6S*)]-N-t-Butyl-2-[2-hydroxy-3-phenylmethylyl-4-aza-5-oxo-6-N(methylsulfonyl)amino-7-benzylthio]heptyl benzamide], for which the IC50 was 3.6 nM.
Consider `CC(C)(C)NC(=O)c1ccccc1C[C@@H](O)[C@H](Cc1ccccc1)NC(=O)[C@@H](CS(=O)(=O)c1ccc2ccccc2c1)NS(C)(=O)=O` [Example 17B, [2R-(2R*,3S*,6S*)]-N-t-Butyl-2-[2-hydroxy-3-phenylmethyl-4-aza-5-oxo-6-N(methylsulfonyl)amino-7-naphth-2-ylsulfonyl]heptyl benzamide], for which the IC50 was 0.191 nM.
In the case of `CC(=O)N[C@@H](CSCc1ccccc1)C(=O)N[C@@H](Cc1ccccc1)[C@H](O)Cc1ccccc1C(=O)NC(C)(C)C` [Example 32, [2R-(2R*,3S*,6R*)]-N-t-Butyl-2-[2-hydroxy-3-phenylmethyl-4-aza-5-oxo-6-N-(ethanoyl)amino-7-benzylthio]heptyl benzamide], under “read-out: Fluorescence Assay IC12”, the IC12 stood at 1 µg/mL.
For the molecule `CC(=O)N[C@H](CC(=O)OCc1ccccc1)C(=O)N[C@@H](Cc1ccccc1)[C@H](O)Cc1ccccc1C(=O)NC(C)(C)C` [Example 1C, [2R-(2R*, 3S*, 6R*)1-N-t-Butyl-2-[2-hydroxy-3-phenylmethyl-4-aza-5-oxo-6-N(ethanoyl)amino-7-benzyloxycarbonyl]heptylbenzamide], the half-maximal inhibitory concentration (IC50) is 56.1 nM.
On to `CCC(=O)N[C@H](CC(=O)OCc1ccccc1)C(=O)N[C@@H](Cc1ccccc1)[C@H](O)Cc1ccccc1C(=O)NC(C)(C)C` [Example 6, [2R-(2R*,3S*,6R*)]-N-t-butyl-2-[2-hydroxy-3-phenylmethyl-4-aza-5-oxo-6-N(propanoyl)amino-7-benzyloxycarbonyl]heptyl benzamide], for which the IC50 is 26.6 nM.
